Measurements taken from patent publication US20150344540A1, “NOVEL GLP-1 RECEPTOR AGONISTS WITH CHOLESTEROL EFFLUX ACTIVITY” (NOVO NORDISK A/S, priority 2012, published 2015).
Read-outs that look alike come from different tables or passages of the source. Where a SMILES comes first, the peptide text is derived from it. [ ]: non-standard residue; d: D form. Aib = CC(C)(N)C(=O)O

Key:
[1] = test system: Mouse monocyte/macrophage cell line, RAW 264.7; assay: Cholesterol efflux assay (3H-cholesterol, macrophage cell line); type: cell-based; details: RAW 264.7, 4 hrs incubation, 0.1% human serum albumin; for 4 h Cholesterol Efflux Emax: ABCA1-mediated efflux; for EC50: read-out: 4 h Cholesterol Efflux EC50, ABCA1-mediated efflux (CPT-cAMP induced minus non-induced)
human GLP-1 receptor = human GLP-1 receptor (Homo sapiens, UniProt P43220); assay: Functional GLP-1 receptor assay, in vitro potency (CRE luciferase; whole cells); type: cell-based; details: BHK cells expressing human GLP-1 receptor
[2] = 0% HSA, read-out: GLP1R CRE luc 0% HSA EC50 Mean Value
[3] = GLP1R CRE luc 1% HSA EC50 Mean Value, 1% HSA

Chain of human GLP-1 receptor (P43220 24-463): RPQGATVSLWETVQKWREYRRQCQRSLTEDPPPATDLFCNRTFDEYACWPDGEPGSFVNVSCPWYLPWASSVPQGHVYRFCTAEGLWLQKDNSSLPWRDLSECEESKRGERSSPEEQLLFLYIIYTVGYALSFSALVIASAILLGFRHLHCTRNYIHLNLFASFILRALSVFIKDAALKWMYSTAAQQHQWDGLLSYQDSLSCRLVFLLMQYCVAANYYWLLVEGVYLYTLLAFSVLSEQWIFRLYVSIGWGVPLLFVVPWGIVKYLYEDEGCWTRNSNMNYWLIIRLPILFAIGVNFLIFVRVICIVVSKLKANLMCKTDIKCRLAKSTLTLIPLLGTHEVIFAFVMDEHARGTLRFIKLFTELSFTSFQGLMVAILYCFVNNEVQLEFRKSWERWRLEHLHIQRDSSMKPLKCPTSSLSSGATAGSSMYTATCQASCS

| Compound | 4 h Cholesterol Efflux Emax [1] | EC50 (human GLP-1 receptor; [2]) | EC50 (human GLP-1 receptor; [3]) | EC50 [1] |
| --- | --- | --- | --- | --- |
| CC[C@H](C)[C@H](NC(=O)[C@H](Cc1ccccc1)NC(=O)[C@H](CCC(=O)O)NC(=O)[C@H](CCCCN)NC(=O)[C@@H](NC(=O)[C@H](C)NC(=O)[C@H](CCC(=O)O)NC(=O)CNC(=O)[C@H](CCC(=O)O)NC(=O)[C@H](CC(C)C)NC(=O)[C@H](Cc1ccc(O)cc1)NC(=O)[C@H](CO)NC(=O)[C@H](CO)NC(=O)[C@@H](NC(=O)[C@H](CC(=O)O)NC(=O)[C@H](CO)NC(=O)[C@@H](NC(=O)[C@H](Cc1ccccc1)NC(=O)[C@@H](NC(=O)CNC(=O)[C@H](CCC(=O)O)NC(=O)C(C)(C)NC(=O)[C@@H](N)Cc1c[nH]cn1)[C@@H](C)O)[C@@H](C)O)C(C)C)C(C)C)C(=O)N[C@@H](CCCCN)C(=O)N[C@@H](Cc1c[nH]c2ccccc12)C(=O)N[C@@H](CC(C)C)C(=O)N[C@H](C(=O)N[C@@H](CCC(=O)O)C(=O)N[C@@H](CCCCN)C(=O)NC(C)(C)C(=O)N[C@@H](CCCCN)C(=O)N[C@@H](CCC(=O)O)C(=O)N[C@@H](Cc1ccccc1)C(=O)N[C@@H](CC(C)C)C(N)=O)C(C)C [Compound 86, [Aib8,Glu23,Val25,Lys30,Glu34,Lys35,Aib36,Lys37]-GLP-1-(7-37)-peptidyl-Glu-Phe-Leu amide] (H-H[Aib]EGTFTSDVSSYLEGEAVKEFIKWLVEK[Aib]KEFL-NH2) | 102% | 0.103 nM | 0.043 nM | – |
| H-HAEGTFTSDVSSYLEGEAVKEFIAWLVEKVKEFLEK-OH [Compound 123, [Glu23,Val25,Glu34,Lys35,Val36,Lys37]-GLP-1-(7-37)-peptidyl-Glu-Phe-Leu-Glu-Lys] | 111% | – | 0.031 nM | – |
| H-HAEGTFTSDVSSYLEGQAAKEFIAWLVEKVKEFLDK-OH [Compound 129, [Glu34,Lys35,Val36,Lys37]-GLP-1-(7-37)-peptidyl-Glu-Phe-Leu-Asp-Lys] | 111% | 0.045 nM | 0.012 nM | – |
| CC[C@H](C)[C@H](NC(=O)[C@H](Cc1ccccc1)NC(=O)[C@H](CCC(=O)O)NC(=O)[C@H](CCCCN)NC(=O)[C@@H](NC(=O)[C@H](C)NC(=O)[C@H](CCC(=O)O)NC(=O)CNC(=O)[C@H](CCC(=O)O)NC(=O)[C@H](CC(C)C)NC(=O)[C@H](Cc1ccc(O)cc1)NC(=O)[C@H](CO)NC(=O)[C@H](CO)NC(=O)[C@@H](NC(=O)[C@H](CC(=O)O)NC(=O)[C@H](CO)NC(=O)[C@@H](NC(=O)[C@H](Cc1ccccc1)NC(=O)[C@@H](NC(=O)CNC(=O)[C@H](CCC(=O)O)NC(=O)C(C)(C)NC(=O)[C@@H](N)Cc1c[nH]cn1)[C@@H](C)O)[C@@H](C)O)C(C)C)C(C)C)C(=O)N[C@@H](C)C(=O)N[C@@H](Cc1c[nH]c2ccccc12)C(=O)N[C@@H](CC(C)C)C(=O)N[C@H](C(=O)N[C@@H](CCC(=O)O)C(=O)N[C@@H](CCCCN)C(=O)N[C@H](C(=O)N[C@@H](CCCCN)C(=O)N[C@@H](CCC(=O)O)C(=O)N[C@@H](CC(C)C)C(=O)N[C@@H](CC(C)C)C(N)=O)C(C)C)C(C)C [Compound 119, [Aib8,Glu23,Val25,Glu34,Lys35,Val36,Lys37]-GLP-1-(7-37)-peptidyl-Glu-Leu-Leu amide] (H-H[Aib]EGTFTSDVSSYLEGEAVKEFIAWLVEKVKELL-NH2) | 117% | – | – | – |
| CC[C@H](C)[C@H](NC(=O)[C@H](Cc1ccccc1)NC(=O)[C@H](CCCCN)NC(=O)[C@H](CCCCN)NC(=O)[C@@H](NC(=O)[C@H](C)NC(=O)[C@H](CCC(=O)O)NC(=O)CNC(=O)[C@H](CCC(=O)O)NC(=O)[C@H](CC(C)C)NC(=O)[C@H](Cc1ccc(O)cc1)NC(=O)[C@H](CO)NC(=O)[C@H](CO)NC(=O)[C@@H](NC(=O)[C@H](CC(=O)O)NC(=O)[C@H](CO)NC(=O)[C@@H](NC(=O)[C@H](Cc1ccccc1)NC(=O)[C@@H](NC(=O)CNC(=O)[C@H](CCC(=O)O)NC(=O)C(C)(C)NC(=O)[C@@H](N)Cc1c[nH]cn1)[C@@H](C)O)[C@@H](C)O)C(C)C)C(C)C)C(=O)N[C@@H](C)C(=O)N[C@@H](Cc1c[nH]c2ccccc12)C(=O)N[C@@H](CC(C)C)C(=O)N[C@H](C(=O)N[C@@H](CCC(=O)O)C(=O)N[C@@H](CCCCN)C(=O)NC(C)(C)C(=O)N[C@@H](CCCCN)C(=O)N[C@@H](CCC(=O)O)C(=O)N[C@@H](Cc1ccccc1)C(=O)N[C@@H](CC(C)C)C(N)=O)C(C)C [Compound 51, [Aib8,Glu23,Val25,Lys27,Glu34,Lys35,Aib36,Lys37]-GLP-1-(7-37)-peptidyl-Glu-Phe-Leu amide] (H-H[Aib]EGTFTSDVSSYLEGEAVKKFIAWLVEK[Aib]KEFL-NH2; N-terminus assumed) | 117% | – | – | 440 nM |
| CC[C@H](C)[C@H](NC(=O)[C@H](Cc1ccccc1)NC(=O)[C@H](CCC(=O)O)NC(=O)[C@H](CCCCN)NC(=O)[C@@H](NC(=O)[C@H](C)NC(=O)[C@H](CCC(=O)O)NC(=O)CNC(=O)[C@H](CCC(=O)O)NC(=O)[C@H](CC(C)C)NC(=O)[C@H](Cc1ccc(O)cc1)NC(=O)[C@H](CO)NC(=O)[C@H](CO)NC(=O)[C@@H](NC(=O)[C@H](CC(=O)O)NC(=O)[C@H](CO)NC(=O)[C@@H](NC(=O)[C@H](Cc1ccccc1)NC(=O)[C@@H](NC(=O)CNC(=O)[C@H](CCC(=O)O)NC(=O)C(C)(C)NC(=O)[C@@H](N)Cc1c[nH]cn1)[C@@H](C)O)[C@@H](C)O)C(C)C)C(C)C)C(=O)N[C@@H](C)C(=O)N[C@@H](Cc1c[nH]c2ccccc12)C(=O)N[C@@H](CC(C)C)C(=O)N[C@H](C(=O)N[C@@H](CCC(=O)O)C(=O)N[C@@H](CCCCN)C(=O)N[C@@H](CC(C)C)C(=O)N[C@@H](CCCCN)C(=O)N[C@@H](CCC(=O)O)C(=O)N[C@@H](CC(C)C)C(=O)N[C@H](C(N)=O)C(C)C)C(C)C [Compound 20, [Aib8,Glu23,Val25,Glu34,Lys35,Leu36,Lys37]-GLP-1-(7-37)-peptidyl-Glu-Leu-Val amide] (H-H[Aib]EGTFTSDVSSYLEGEAVKEFIAWLVEKLKELV-NH2; N-terminus assumed) | 102% | – | – | 560 nM |
| CC[C@H](C)[C@H](NC(=O)[C@H](Cc1ccccc1)NC(=O)[C@H](CCC(=O)O)NC(=O)[C@H](CCCCN)NC(=O)[C@@H](NC(=O)[C@H](C)NC(=O)[C@H](CCC(=O)O)NC(=O)[C@H](CCC(=O)O)NC(=O)[C@H](CCC(=O)O)NC(=O)[C@H](CC(C)C)NC(=O)[C@H](Cc1ccc(O)cc1)NC(=O)[C@H](CO)NC(=O)[C@H](CO)NC(=O)[C@@H](NC(=O)[C@H](CC(=O)O)NC(=O)[C@H](CO)NC(=O)[C@@H](NC(=O)[C@H](Cc1ccccc1)NC(=O)[C@@H](NC(=O)CNC(=O)[C@H](CCC(=O)O)NC(=O)C(C)(C)NC(=O)[C@@H](N)Cc1c[nH]cn1)[C@@H](C)O)[C@@H](C)O)C(C)C)C(C)C)C(=O)N[C@@H](C)C(=O)N[C@@H](Cc1c[nH]c2ccccc12)C(=O)N[C@@H](CC(C)C)C(=O)N[C@H](C(=O)N[C@@H](CCC(=O)O)C(=O)N[C@@H](CCCCN)C(=O)N[C@H](C(=O)N[C@@H](CCCCN)C(=O)N[C@@H](CCC(=O)O)C(=O)N[C@@H](CC(C)C)C(=O)N[C@@H](CC(C)C)C(N)=O)C(C)C)C(C)C [Compound 109, [Aib8,Glu22,Glu23,Val25,Glu34,Lys35,Val36,Lys37]-GLP-1-(7-37)-peptidyl-Glu-Leu-Leu amide] (H-H[Aib]EGTFTSDVSSYLEEEAVKEFIAWLVEKVKELL-NH2) | 99% | – | – | – |
| CC[C@H](C)[C@H](NC(=O)[C@H](Cc1ccccc1)NC(=O)[C@H](CCC(=O)O)NC(=O)[C@H](CCCCN)NC(=O)[C@@H](NC(=O)[C@H](C)NC(=O)[C@H](CCC(=O)O)NC(=O)CNC(=O)[C@H](CCC(=O)O)NC(=O)[C@H](CC(C)C)NC(=O)[C@H](Cc1ccc(O)cc1)NC(=O)[C@H](CO)NC(=O)[C@H](CO)NC(=O)[C@@H](NC(=O)[C@H](CC(=O)O)NC(=O)[C@H](CO)NC(=O)[C@@H](NC(=O)[C@H](Cc1ccccc1)NC(=O)[C@@H](NC(=O)CNC(=O)[C@H](CCC(=O)O)NC(=O)C(C)(C)NC(=O)[C@@H](N)Cc1c[nH]cn1)[C@@H](C)O)[C@@H](C)O)C(C)C)C(C)C)C(=O)N[C@@H](C)C(=O)N[C@@H](Cc1c[nH]c2ccccc12)C(=O)N[C@@H](CC(C)C)C(=O)N[C@H](C(=O)N[C@@H](CCC(=O)O)C(=O)N[C@@H](CCCCN)C(=O)NC(C)(C)C(=O)N[C@@H](CCCCN)C(=O)N[C@@H](CCC(=O)O)C(=O)N[C@@H](Cc1ccccc1)C(=O)N[C@@H](CC(C)C)C(=O)N[C@@H](CCC(=O)O)C(=O)N[C@@H](CCCCN)C(=O)N[C@H](C(=O)O)C(C)C)C(C)C [Compound 98, [Aib8,Glu23,Val25,Glu34,Lys35,Aib36,Lys37]-GLP-1-(7-37)-peptidyl-Glu-Phe-Leu-Glu-Lys-Val] | 132% | – | – | 430 nM |
| CC[C@H](C)[C@H](NC(=O)[C@H](Cc1ccccc1)NC(=O)[C@H](CCC(=O)O)NC(=O)[C@H](CCCNC(=N)N)NC(=O)[C@@H](NC(=O)[C@H](C)NC(=O)[C@H](CCC(=O)O)NC(=O)CNC(=O)[C@H](CCC(=O)O)NC(=O)[C@H](CC(C)C)NC(=O)[C@H](Cc1ccc(O)cc1)NC(=O)[C@H](CO)NC(=O)[C@H](CO)NC(=O)[C@@H](NC(=O)[C@H](CC(=O)O)NC(=O)[C@H](CO)NC(=O)[C@@H](NC(=O)[C@H](Cc1ccccc1)NC(=O)[C@@H](NC(=O)CNC(=O)[C@H](CCC(=O)O)NC(=O)C(C)(C)NC(=O)[C@@H](N)Cc1c[nH]cn1)[C@@H](C)O)[C@@H](C)O)C(C)C)C(C)C)C(=O)N[C@@H](C)C(=O)N[C@@H](Cc1c[nH]c2ccccc12)C(=O)N[C@@H](CC(C)C)C(=O)N[C@H](C(=O)N[C@@H](CCC(=O)O)C(=O)N[C@@H](CCCNC(=N)N)C(=O)NC(C)(C)C(=O)N[C@@H](CCCCN)C(=O)N[C@@H](CCC(=O)O)C(=O)N[C@@H](Cc1ccccc1)C(=O)N[C@@H](CC(C)C)C(N)=O)C(C)C [Compound 19, [Aib8,Glu23,Val25,Arg26,Glu34,Arg35,Aib36,Lys37]-GLP-1-(7-37)-peptidyl-Glu-Phe-Leu amide] (H-H[Aib]EGTFTSDVSSYLEGEAVREFIAWLVER[Aib]KEFL-NH2) | 83% | – | – | – |
